Measured values reported in patent publication US5739112A, “Inhibitors of factor Xa” (Corvas International, Inc., priority 1995, dated 1998).
Numbered stars: 1 amine (or outer) side, 2 acyl side, 3 side chain; on linkers, the order of the positions; unused ones are H or OH. Square brackets hold non-standard residues; d marks the D form. Peptide text beside a SMILES is read from it. * marks the point of attachment. 1Nal = N[C@@H](Cc1cccc2ccccc12)C(=O)O; 2Nal = N[C@@H](Cc1ccc2ccccc2c1)C(=O)O; d2Nal = N[C@H](Cc1ccc2ccccc2c1)C(=O)O; dPhg = N[C@@H](C(=O)O)c1ccccc1; Suc = O=C(CCC(=O)[*:2])[*:1]; Boc = CC(C)(C)OC(=O)*

Experiments:
Human α-thrombin = biological target: T1, Human α-thrombin (Homo sapiens, UniProt P00734); assay: Thrombin assay (chromogenic substrate S-2238); type: biochemical; conditions: for Percent Selectivity Thrombin: 100 times IC50 for factor Xa divided by IC50 for thrombin; for IC50: 60 min preincubation at room temperature, >25 means less than 50% inhibition at 25 μM
T1 construct: purchased Enzyme Research Laboratories, Inc
Method: (§1) To assay their activities, the compounds of the present invention are dissolved in buffer to give solutions containing concentrations ranging under assay concentrations from 0 to about 100 μM. The enzyme to be tested is then added to a solution containing a specified concentration of the test compound. Then after an incubation period, synthetic substrate for the enzyme being tested is added. The rate of substrate turnover is determined spectrophotometrically. The IC50 of the test compound is determined for each test compound in assays for factor Xa, factor XIa, thrombin and tPA. IC50 is that concentration of test compound giving 50% inhibition of the substrate turnover. Percent selectivity is used to indicate selectivity of a compound in inhibiting Factor Xa in comparison with either Factor XIa, thrombin or tPA. Percent selectivity of a particular compound for either Factor XIa, thrombin or tPA refers to a number obtained by dividing the product of one hundred and the IC50 of the compound for Factor Xa by the IC50 of the compound for either Factor XIa, thrombin or tPA.
(§2) The specificity of the peptide aldehydes through was determined by measurement of their IC50 against factor Xa, factor XIa, thrombin and tissue plasminogen activator (tPA). Peptide aldehyde which has been described in the art was run as a comparison. A specific concentration of enzyme and its substrate were challenged with varying concentrations: of inhibitor. IC50 is that concentration of inhibitor giving 50% inhibition of catalytic activity, under the assay conditions Specific assay procedures used are presented below.
Enzyme activity was determined using as substrate, S2238 (D-phenylalanyl-L-pipecolyl-L-arginine-p-nitroanilide dihydrochloride) which was obtained from Kabi Diagnostica. The substrate was made up in deionized water prior to use.
Human α-thrombin was obtained from Enzyme Research Laboratories, Inc. The enzyme was diluted into TBSA prior to use.
(§3) The assay was run by combining in appropriate wells 50 μL of TBSA, 50 μL of inhibitor in TBSA or TBSA (as negative control) and 50 μL of 4 nM human α-thrombin or TBSA (as background control). After incubating this mixture for 60 minutes at room temperature, 50 μL of 0.24 mM S-2238 was added to each well and the initial rate of the change of optical density at 405 nm (OD405 nm) for each well was determined. OD405 nm was measured every 10 seconds for 5 minutes.

Human factor XIa = biological target: T2, Human factor XIa (Homo sapiens, UniProt P03951); assay: Factor XIa assay (chromogenic substrate S-2366); type: biochemical; conditions: for Percent Selectivity XIa: 100 times IC50 for factor Xa divided by IC50 for factor XIa; for IC50: 60 min preincubation at room temperature, >25 means less than 50% inhibition at 25 μM
T2 construct: purchased Enzyme Research Laboratories, Inc
T2 sequence (P03951 388-625 limits assumed): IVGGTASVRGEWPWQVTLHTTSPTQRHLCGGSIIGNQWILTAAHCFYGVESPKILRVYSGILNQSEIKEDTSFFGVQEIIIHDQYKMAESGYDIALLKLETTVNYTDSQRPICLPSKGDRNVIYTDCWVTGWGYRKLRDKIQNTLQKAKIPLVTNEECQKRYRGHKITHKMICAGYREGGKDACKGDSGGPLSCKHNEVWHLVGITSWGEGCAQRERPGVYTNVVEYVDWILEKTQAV
T2 sequence (P03951 19-387 partner limits assumed): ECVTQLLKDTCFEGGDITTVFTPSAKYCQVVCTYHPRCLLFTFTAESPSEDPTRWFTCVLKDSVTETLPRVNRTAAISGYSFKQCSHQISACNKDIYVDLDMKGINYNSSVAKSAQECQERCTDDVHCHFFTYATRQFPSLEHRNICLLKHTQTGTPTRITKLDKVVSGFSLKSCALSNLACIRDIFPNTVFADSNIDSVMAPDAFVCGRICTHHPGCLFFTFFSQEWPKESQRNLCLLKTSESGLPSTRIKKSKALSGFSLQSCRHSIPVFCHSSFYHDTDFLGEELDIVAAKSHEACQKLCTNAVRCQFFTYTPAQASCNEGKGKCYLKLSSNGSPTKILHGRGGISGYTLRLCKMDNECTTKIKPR
Method: as §1, §2
Enzyme activity was determined using as substrate, S2366 (L-pyroglutamyl-L-prolyl-L-arginine-p-nitroanilide hydrochloride) which was obtained from Kabi Diagnostica. The substrate was made up in deionized water prior to use.
Human factor XIa was obtained from Enzyme Research Laboratories, Inc. The enzyme was diluted into TBSA prior to use.
(§4) The assay was run by combining in appropriate wells 50 μL of TBSA, 50 μL of inhibitor in TBSA or TBSA (as negative control) and 50 μL of 2 nM human Factor Xia or TBSA (as background control). After incubating this mixture for 60 minutes at room temperature, 50 μL of 6 mM S-2366 was added to each well and the initial rate of the change of the optical density at 405 nm (OD405 nm) for each well was determined. OD405 nm was measured every 10 seconds for 5 minutes.

Human factor Xa [1] = biological target: T3, Human factor Xa (Homo sapiens, UniProt P00742); assay: Factor Xa assay (chromogenic substrate S-2765); type: biochemical; conditions: for IC50: 60 min preincubation at room temperature, TBSA pH 7.4; for Percent Selectivity Xa: taken as 100 by definition
T3 construct: Human factor X contains a light-chain subunit containing 139 amino acid residues; purchased Enzyme Research Laboratories
T3 sequence (P00742 235-488 limits assumed): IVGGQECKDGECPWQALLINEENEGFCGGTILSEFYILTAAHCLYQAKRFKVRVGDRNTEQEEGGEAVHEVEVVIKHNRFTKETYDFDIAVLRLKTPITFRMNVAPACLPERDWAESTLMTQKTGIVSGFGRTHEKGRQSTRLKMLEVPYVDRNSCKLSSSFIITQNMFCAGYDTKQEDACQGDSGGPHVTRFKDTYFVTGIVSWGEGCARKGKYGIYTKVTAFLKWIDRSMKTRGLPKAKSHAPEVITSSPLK
T3 sequence (P00742 41-179 partner limits assumed): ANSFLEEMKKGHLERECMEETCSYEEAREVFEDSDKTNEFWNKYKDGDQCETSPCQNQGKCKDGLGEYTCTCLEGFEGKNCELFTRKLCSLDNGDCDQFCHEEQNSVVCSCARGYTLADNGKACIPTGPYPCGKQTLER
Method: as §1, §2
Enzyme activity was determined using as substrate, S2765 (N-a-benzyloxycarbonyl-D-argininyl-L-glycyl-L-arginine-p-nitroanilide dihydrochloride) which was obtained from Kabi Diagnostica. The substrate was made up in deionized water prior to use.
Human factor Xa was obtained from Enzyme Research Laboratories. The enzyme was diluted into TBSA prior to use.
as §4, with “Factor Xa” for “Factor Xia”, “of 1” for “of 6”, “mM S-2765” for “mM S-2366”

[2] = biological target: T4, Human recombinant t-PA (Activase) (Homo sapiens, UniProt P00750); assay: tPA assay (substrate Pefachrome tPA); type: biochemical; conditions: for Percent Selectivity tPA: 100 times IC50 for factor Xa divided by IC50 for tPA; for IC50: 60 min preincubation at room temperature, >25 means less than 50% inhibition at 25 μM
T4 construct: purchased Genentech, Inc. Activase
T4 sequence (P00750 36-562): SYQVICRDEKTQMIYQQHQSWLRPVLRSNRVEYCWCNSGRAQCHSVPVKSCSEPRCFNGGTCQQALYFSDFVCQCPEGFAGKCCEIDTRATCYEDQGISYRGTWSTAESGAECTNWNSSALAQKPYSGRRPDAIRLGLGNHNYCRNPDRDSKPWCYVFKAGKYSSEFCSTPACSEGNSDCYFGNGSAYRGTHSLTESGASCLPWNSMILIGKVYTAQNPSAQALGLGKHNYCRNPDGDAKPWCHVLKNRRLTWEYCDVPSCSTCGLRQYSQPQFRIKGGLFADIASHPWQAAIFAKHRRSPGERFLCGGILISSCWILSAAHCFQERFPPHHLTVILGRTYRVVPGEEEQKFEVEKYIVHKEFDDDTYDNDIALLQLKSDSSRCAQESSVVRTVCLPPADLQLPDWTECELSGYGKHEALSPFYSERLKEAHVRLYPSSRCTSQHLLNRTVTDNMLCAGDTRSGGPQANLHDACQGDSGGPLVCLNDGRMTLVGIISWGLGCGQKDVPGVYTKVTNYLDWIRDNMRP
Method: as §1, §2
Enzyme activity was determined using as substrate, Pefachrome tPA (O-methylsulfonate-D-hexahydrotyrosine-L-glycyl-L-argini ne-p-nit roanilide acetate salt) which was obtained from Centerchem, Inc. The substrate was made up in deionized water prior to use.
Human recombinant t-PA (Activase®) was obtained. from Genentech, Inc. The enzyme was reconstituted with water, then diluted into TBSA prior to use.
as §3, with “recombinant tPA” for “α-thrombin”, “4” for “0.24”, “Pefachrome tPA” for “S-2238”

human thrombin = human thrombin (Homo sapiens, UniProt P00734); conditions: Hitomi et al., p. 166; read-out: inhibitor constant, human thrombin; cited from earlier work
Human factor Xa [3] = biological target: T3, Human factor Xa; conditions: Hitomi et al., p. 166; read-out: inhibitor constant, human factor Xa; cited from earlier work

SMILES | Percent Selectivity Thrombin (Human α-thrombin) | IC50 (Human α-thrombin) [µM] | Percent Selectivity XIa (Human factor XIa) | IC50 (Human factor XIa) [µM] | IC50 (Human factor Xa [1]) [µM] | Percent Selectivity Xa (Human factor Xa [1]) | Percent Selectivity tPA [2] | IC50 [2] [µM] | Ki (human thrombin) [µM] | Ki (Human factor Xa [3]) [µM]
CC(C)(C)OC(=O)N[C@H](Cc1ccccc1)C(=O)N1CC[C@H](c2ccccc2)[C@H]1C(=O)N[C@H](C=O)CCCNC(=N)N (relative stereo) [[10], N-t-butoxycarbonyl-D-phenylalanyl-L-(3-trans-phenyl)prolinyl-L-argininal] | < 2.5 | > 25 | < 2.5 | > 25 | 0.625 | 100 | < 2.5 | > 25 |  | 
N=C(N)c1ccc2cc(OC(=O)c3ccc(N=C(N)N)cc3)ccc2c1 [FUT-75, 6-amidino-2-naphthyl-p-guanidinobenzoate dimethanesulfonate] |  |  |  |  |  |  |  |  | 1.3 | 4.1
CC(C)(C)OC(=O)N[C@H](Cc1ccc2ccccc2c1)C(=O)N[C@@H](Cc1ccccc1)C(=O)N[C@H](C=O)CCCNC(=N)N [[1], N-t-butoxycarbonyl-D-3-(2-naphthyl)alanyl-L-phenylalanyl-L-argininal] (Boc-[d2Nal]-Phe-Arg-aldehyde) | 1.6 | 14 | 1.4 | 16 | 0.22 | 100 | < 0.9 | > 25 |  | 
CC(C)(C)OC(=O)N[C@@H](C(=O)N[C@@H](Cc1ccccc1)C(=O)N[C@H](C=O)CCCN=C(N)N)c1ccccc1 [[2], N-t-Butoxycarbonyl-D-2-Phenylglycyl-L-phenylalanyl-L-Arainial] (Boc-[dPhg]-Phe-Arg-aldehyde) | < 2.6 | > 25 | 4.9 | 13 | 0.64 | 100 | < 2.6 | > 25 |  | 
CC(C)(C)OC(=O)N[C@H](Cc1ccccc1)C(=O)N[C@@H](Cc1ccc2ccccc2c1)C(=O)N[C@H](C=O)CCCNC(=N)N [[3], N-t-butoxycarbonyl-D-phenylalanyl-L-3-(2-naphthyl)alanyl-L-argininal] (Boc-[dF]-[2Nal]-Arg-aldehyde) | 3.6 | 25 | 3.6 | 25 | 0.89 | 100 | < 3.6 | > 25 |  | 
CC(C)(C)OC(=O)N[C@H](Cc1ccccc1)C(=O)N[C@@H](Cc1ccccc1)C(=O)N[C@H](C=O)CCCNC(=N)N [[4], N-t-butoxycarbonyl-D-phenylalinyl-L-phenylalinyl-L-argininal] (Boc-[dF]-Phe-Arg-aldehyde) | < 0.8 | > 25 | 0.8 | 25 | 0.21 | 100 | < 0.8 | > 25 |  | 
CC(C)(C)OC(=O)N[C@H](Cc1ccccc1)C(=O)N[C@@H](Cc1cccc2ccccc12)C(=O)N[C@H](C=O)CCCNC(=N)N [[5], N-t-butoxycarbonyl-D-phenylalanyl-L-3-(1-naphthyl)alanyl-L-argininal] (Boc-[dF]-[1Nal]-Arg-aldehyde) | 0.2 | 13 | 0.2 | 14 | 0.03 | 100 | < 0.1 | > 25 |  | 
CC(=O)N[C@H](Cc1ccccc1)C(=O)N[C@@H](Cc1cccc2ccccc12)C(=O)N[C@H](C=O)CCCNC(=N)N [[6], N-acetyl-D-phenylalanyl-L-3-(1-naphthyl)alanyl-L-argininal] (Ac-[dF]-[1Nal]-Arg-aldehyde) | < 0.1 | > 25 | 7.8 | 0.32 | 0.025 | 100 | < 0.1 | > 25 |  | 
CC(C)(C)OC(=O)NC(C(=O)N[C@@H](Cc1cccc2ccccc12)C(=O)N[C@H](C=O)CCCNC(=N)N)c1ccc(-c2ccccc2)cc1 (stereo partly drawn) [[7], N-t-butoxycarbonyl-D,L-(α-biphenyl)glycyl-L-3-(1-naphthyl)alanyl-L-argininal] | < 10 | > 25 | < 10 | > 25 | 2.5 | 100 | < 10 | > 25 |  | 
N=C(N)NCCC[C@@H](C=O)NC(=O)[C@H](Cc1cccc2ccccc12)NC(=O)[C@@H](Cc1ccccc1)NC(=O)CCC(=O)O [[8], N-succinyl-D-phenylalanyl-L-3-(1-naphthyl)alanyl-L-argininal] (Suc-[dF]-[1Nal]-Arg-aldehyde) | < 0.1 | > 25 | 0.12 | 20 | 0.023 | 100 | < 0.1 | > 25 |  | 
CC(C)CCC(=O)N[C@H](Cc1ccccc1)C(=O)N[C@@H](Cc1cccc2ccccc12)C(=O)N[C@H](C=O)CCCNC(=N)N [[9]] | < 0.68 | > 25 | < 0.68 | > 25 | 0.17 | 100 |  |  |  | 
CC(C)(C)OC(=O)N[C@H](Cc1ccccc1)C(=O)N1CCC[C@H]1C(=O)N[C@H](C=O)CCCNC(=N)N [[23], N-Boc-D-phenylalanyl-L-prolyl-L-argininal, reference compound] | 22,800 | 0.025 | 317 | 1.8 | 5.7 | 100 | 518 | 1.1 |  | 
